Measured values from patent publication US5175166A, “Muscarinic agonists” (The University of Toledo, priority 1991, dated 1992).
Structures can show the parent of a compound that is named as a salt.

Key:
[1] = test system: muscarinic receptors linked to M1, M3, M5 receptors; assay: PI Cortex: phosphoinositide turnover in the cortex (brain slices); type: cell-based, Male Long Evans rats; conditions: Rattus norvegicus, read-out: PI Cortex, maximal % response above baseline
Experimental: Male Long Evans rats (200-300 g) were decapitated and their brains were rapidly removed and dissected according to the method of Glowinski and Iversen. […] The slices were gently agitated at 37° C. in a shaking water bath for 45 min with three changes to buffer.
Immediately before each experiment, [^3 H] inositol was purified by drying under Nz and passing a portion through a 1-ml column of Dowex AGl-X8 (formate form) to remove contaminants. […] Aliquots (25 microliters) of tissue slices were pipetted into flat-bottomed Beckman-biovials (5-ml capacity) containing 0.3 mM [^3 H]-inositol (15 Ci/mmol) and 10 mM LiCl in 245 microliters of buffer. The vials were then gassed, capped and incubated at 37° C. in a shaking water bath for 30 min. At the end of 30 min, agonist (or buffer for the determination of basal levels) was then added (30 microliters), and the incubation continued for an additional 45 min. The 45 -min incubation period was selected on the basis of the time course of labeled inositol phosphates ([^3 H]-IP's) accumulation under these conditions. The incubations were stopped by the addition of 0.94 ml of CHCl3 /MeOH (1:2, V/V) followed by 0.31 ml of CHCl3 and 0.31 ml of H2 O. The samples were mixed with vigorous shaking and spun at 1000×g for 10 min to separate organic and aqueous phases. Aliquots (750 microliter) of the upper aqueous phase were removed for determination of [^3 H]-IP's. In some cases 200 ml aliquots of the organic phase were removed, dried overnight and counted in 5 ml of scintillant (Amersham) for determination of [^3 H]-inositol incorporation into phospholipids.
Briefly, ACCELL QMA anion-exchange SEP-PAK's (Waters Associates) cartridges were converted into the formate form by washing first with 10 ml of a solution of 1.0 M-ammonium formate in 0.1 M-formic acid, followed by 20 ml of distilled water. The sample loading and solution delivery were performed by using disposable plastic syringes; an approximate flow rate of 10-15 ml/min was maintained. Total [^3 H]-IP's were determined by the "batch" method in which 750 microliter aliquots of the aqueous phase obtained as described above was diluted to 3 ml with distilled water. The entire amount was loaded on to the ACCELL QMA anion-exchange SEP-PAK cartridge. The cartridge was then washed with 10 ml of distilled water, followed by 5 mM-disodium tetraborate. Radiolabeled IP's were then eluted with 1 ml of 0.6 M-ammonium formate/0.06 M formic acid/5 mM-disodium tetraborate (pH 4.75) and 0.50 ml of this eluate was counted in 5 ml of aqueous counting scintillant.

[2] = target: muscarinic receptors; assay: Binding, competition with 3H-oxotremorine M (3H-OXO-M), agonist binding (rat brain membranes); conditions: 3 nM 3H-oxotremorine M, 15 minutes room temperature, mean of three experiments
Experimental: (§1) Other binding was determined indirectly by the ability of compounds to compete with 1 nM ^3 H-pirenzepine (^3 H--PZ), or 3 nM ^3 H-oxotremorine M (^3 H--OXO--M) in a suspension of brain membranes. Each sample contained approximately 0.1 mg/ml protein for ^3 H--OXO--M in 20 mM Tris-Cl buffer with 1 mM MnCl2 and varying concentrations of compound in a final volume of […]. Samples were incubated 1 hr. for ^3 H--PZ, and 15 minutes for ^3 H--OXO--M at room temperature and then filtered through glass fiber filters using a Brandell cell harvester adapted for receptor binding work and the filters were washed twice with two 5-ml portions of cold buffer. Nonspecific binding was evaluated by the inclusion of excess atropine in a separate set of samples. IC50 values were determined from Hill plots of the inhibition data and are reported as means of three independent experiments each performed in triplicate.
(§2) Rats were killed by cervical dislocation and their brains rapidly removed. Tissue was homogenized in 9 vol. (w/v) of a 40 mM sodium-potassium phosphate buffer solution (pH 7.4) buffer solution with a Brinkman Polytron homogenizer five times for 10 sec at 5 sec intervals. The crude homogenate was subjected to centrifugation for 10 min at 1000×g, the supernatant saved, and the pellet resuspended in 9 vol. (w/v) of homogenization buffer and spun for another 10 min at 1000×g. The supernatants were combined and spun again for 30 min at 17,500×g. The resultant pellet was resuspended by homogenization in a Teflon-glass homogenizer in 10 vol. of buffer, and washed by centrifugation at 17,500×g for 30 min. The final pellet was resuspended by hand homogenization with a Teflon and glass homogenizer in buffer. The suspension was then divided into several portions and stored at -70° C.
(§3) In the table, ^3 H-QNB indicates general binding to muscarinic receptors and the lower the number, the higher is the potency. ^3 H-PZ indicates binding to muscarinic receptors and a preference for M1 receptors involved in memory and cognition. The lower the number for ^3 H-PZ the higher the potencies; the same is true for ^3 H--OXO--M which indicates agonist binding. In general, the higher the ratio of the value for ^3 H--PZ to the value for ^3 H--OXO--M the better is the agonistic characteristic.

[3] = test system: M1 receptors; assay: Phosphoinositide turnover in the hippocampus (brain slices); type: cell-based, Male Long Evans rats; conditions: Rattus norvegicus, read-out: Phosphoinositide turnover in the hippocampus, maximal % response above baseline; for activation at 100 µM / activation at 50 µM: hippocampus
Experimental: The slices were gently agitated at 37° C. in a shaking water bath for 45 min with three changes to buffer. […] The samples were mixed with vigorous shaking and spun at 1000×g for 10 min to separate organic and aqueous phases. […] Briefly, […] anion-exchange SEP-PAK's (Waters Associates) cartridges were converted into the formate form by washing first with 10 ml of a solution of 1.0 M-ammonium formate in 0.1 M-formic acid, followed by 20 ml of distilled water. The sample loading and solution delivery were performed by using disposable plastic syringes; an approximate flow rate of 10-15 ml/min was maintained. […] The entire amount was loaded on to the […] anion-exchange SEP-PAK cartridge. […] Phosphoinositide turnover in the hippocampus indicates a biological response in an area of the brain where M1 receptors predominate. Higher numbers indicate greater efficacy and selectivity at M1 receptors.

[4] = target: muscarinic receptors; assay: Binding to muscarinic receptors, competition with [3H]-QNB (rat brain membranes); conditions: for IC50: 50 pM [3H]-QNB, rat brain membranes, pH 7.4, 2.0 hr room temperature, mean of three experiments; for binding to muscarinic receptors (in words): qualitative statement
[5] = target: T1, M1 receptors (Rattus norvegicus, UniProt P08482); assay: Binding, competition with 3H-pirenzepine (3H-PZ) (rat brain membranes); conditions: 1 nM 3H-pirenzepine, 1 hr room temperature, mean of three experiments
T1 sequence (P08482 1-460): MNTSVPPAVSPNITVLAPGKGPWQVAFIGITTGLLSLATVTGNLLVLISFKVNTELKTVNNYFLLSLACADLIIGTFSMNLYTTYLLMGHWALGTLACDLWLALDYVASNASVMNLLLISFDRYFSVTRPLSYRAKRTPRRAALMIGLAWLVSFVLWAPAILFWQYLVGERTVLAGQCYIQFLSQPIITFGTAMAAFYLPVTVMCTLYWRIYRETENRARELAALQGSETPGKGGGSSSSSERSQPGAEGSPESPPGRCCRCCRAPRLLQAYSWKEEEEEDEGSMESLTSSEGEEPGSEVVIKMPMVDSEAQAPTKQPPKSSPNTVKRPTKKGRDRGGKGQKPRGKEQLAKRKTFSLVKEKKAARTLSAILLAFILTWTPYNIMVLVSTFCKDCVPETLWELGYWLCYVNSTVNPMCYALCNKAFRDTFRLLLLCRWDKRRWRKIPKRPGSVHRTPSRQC
Experimental: as §1, §2, §3

[6] = test system: muscarinic receptors; assay: Phosphoinositide (PI) response / inositol phosphate formation in brain slices (region not stated); type: cell-based, Male Long Evans rats; conditions: qualitative statement
Experimental: The slices were gently agitated at 37° C. in a shaking water bath for 45 min with three changes to buffer.
The sample loading and solution delivery were performed by using disposable plastic syringes; an approximate flow rate of 10-15 ml/min was maintained.

Structure (SMILES) | activation at 100 µM [1] | IC50 [2] | activation at 1000 µM [3] | IC50 [4] | IC50 [5] | activation at 100 µM [3] | binding to muscarinic receptors (in words) [4] | PI response (in words) [6] | activation at 1000 µM ([1]; dose 1 mM) | activation at 50 µM [3]
COC(=O)C1CN=CNC1 (centres unmarked) [Example 1, 1,4,5,6-Tetrahydro-5-methoxycarbonylpyrimidine Hydrobromide] | 131% | 90 nM | 237% | – | – | – | – | – | – | –
CCOC(=O)C1CN=CNC1 (centres unmarked) [Example 2, 1,4,5,6-Tetrahydro-5-ethoxycarbonylpyrimidine Hydrochloride] | 150% | 160 nM | – | 1.9 µM | – | – | – | – | – | –
CCCOC(=O)C1CN=CNC1 (centres unmarked) [Example 3, n-Propyl 1,4,5,6-Tetrahydropyrimidine-5-carboxylate Hydrochloride] | 7.1% | 1080 nM | – | 2.1 µM | 1.33 µM | – | – | – | – | –
CC(C)OC(=O)C1CN=CNC1 (centres unmarked) [Example 4, Isopropyl 1,4,5,6-Tetrahydropyrimidine-5-carboxylate Hydrochloride] | 7.2% | 1760 nM | – | 3.5 µM | – | – | – | – | – | –
O=C(OCc1ccccc1)C1CN=CNC1 (centres unmarked) [Example 5, Benzyl 1,4,5,6-Tetrahydropyrimidine-5-carboxylate Hydrochloride] | 3.5% | 1090 nM | – | ~1 µM | 1.27 µM | – | – | – | – | –
C#CCOC(=O)C1CN=CNC1 (centres unmarked) [Example 6, Propynyl 1,4,5,6-Tetrahydropyrimidine-5-carboxylate Hydrochloride] | 230% | – | – | 1.9 µM | – | – | – | – | – | –
Cc1noc(C2CN=CNC2)n1 (centres unmarked) [Example 9, 1,4,5,6-Tetrahydro-5-(3-methyl-1,2,4-oxadiazol-5-yl)pyrimidine trifluoroacetate] | 700% | 26 nM | – | 2 µM | – | 704% | – | – | – | –
CC(=O)OC1CN=CNC1.Cl (centres unmarked) [Example 10, 5-Acetoxy-1,4,5,6-tetrahydropyrimidine HCl] | – | 640 nM | – | 31.6 µM | 10 µM | 70% | acceptable binding data | efficacious with respect to the PI response | – | –
COC(=O)C1=CNCN(C)C1 [Example 11, 1-Methyl-5-methoxycarbonyl-1,2,3,6-tetrahydropyrimidine HCl] | – | 2400 nM | – | 25.1 µM | 15 µM | – | – | – | 182% | –
COC(=O)C1CCC(N)=NC1.Cl (centres unmarked) [Example 14, 2-Amino-5-methoxycarbonyl-3,4,5,6-tetrahydropyridine HCl] | 265% | 114 nM | – | 7.3 µM | 0.77 µM | – | – | unexpectedly superior PI response | – | –
COC(=O)C1CCCN=C1N (centres unmarked) [Example 15, 2-amino-3-methoxycarbonyl-3,4,5,6-tetrahydropyridine HCl] | -5.5% | > 10000 nM | – | 83 µM | 13 µM | – | – | – | – | –
COC(=O)C1CCN=C(N)C1 (centres unmarked) [Example 16, 2-Amino-4-methoxycarbonyl-3,4,5,6-tetrahydropyridine HCL] | 9% | – | – | 130 µM | – | – | – | – | – | –
COC(=O)C1CCCC(N)=N1 (centres unmarked) [Example 17, 2-Amino-6-methoxycarbonyl-3,4,5,6-tetrahydropyridine HCL] | 5.9% | > 10000 nM | – | 130 µM | > 10 µM | – | – | – | – | –
CC(=O)OC1CN=C(C(F)(F)F)NC1.Cl (centres unmarked) [Example 18, 5-Acetoxy-2-trifluoromethyl-1,4,5,6-tetrahydropyrimidine HCl] | – | > 10000 nM | – | 8.7 µM | > 10 µM | – | – | no PI response | – | 0%
CC(=O)OC1CN=C(C)NC1 (centres unmarked) [Example 19, 2-methyl-5-acetoxy-1,4,5,6-tetrahydropyrimidine] | – | > 10000 nM | – | 100 µM | > 10 µM | – | extremely poor binding to muscarinic receptors | virtually no PI response | – | 0%
